Measured values published in patent US6596499B2, “Membrane molecule indicator compositions and methods” (The Netherlands Cancer Institute, priority 2000, dated 2003).

What was measured:
[1] = system: N1E-115 cells; conditions: N1E-115 and other cells; cited from earlier work
[2] = system: PLC; format: cell-based, mouse

Compound | time for neurites to retract and cell soma to round up [1] [s] | translocation amplitude [2] | duration of translocation response (long-lasting) [2] [min] | desensitization of PLC activation on repeated stimulation [2]
CCCCCCCC/C=C\CCCCCCCC(=O)OCC(O)COP(=O)(O)O (centres unmarked) [LPA, 1-oleoyl LPA] | ≤ 60 | 25 % of BK response control values |  | 
NCCc1c[nH]cn1 [histamine] |  | 40 % of BK-induced peak values | ≥ 15 | 
neurokinin A [NKA] |  |  |  | incremental partial homologous desensitization
